Data: article PMC8318231, “Rate-of-Kill (RoK) assays to triage large compound sets for Chagas disease drug discovery: Application to GSK Chagas Box” (PLoS Neglected Tropical Diseases, 2021)
“And” between values parts separate entries of the source, which are not always exact repeats. Equal entries are not always repeated.

Columns and labels:
[1] = test system: T. cruzi intracellular amastigotes in H9c2 cells; assay: RoK combination assay with BNZ; type: cell-based, Trypanosoma cruzi
Protocol: The assay was performed following the same experimental procedure mentioned above in the RoK assay. The infected H9c2 cells were treated with final 10 and 50 μM concentrations of BNZ and DMSO before being dispensed into the plates containing the compounds. For the combination with 50 μM BNZ, two plates were incubated for 4 and 24 hours respectively before being fixed. For the combinations with 10 μM BNZ and with DMSO, four plates for each condition were incubated for 4, 24, 48 and 72 hours before being fixed.

[2] = test system: H9c2 (rat cardiomyocytes); assay: RoK assay, number of host cells nuclei (drug-related cytotoxicity, H9c2 output, Cmin_Tox); conditions: H9c2 host cells
Protocol: For this high-content intracellular imaging assay, H9c2 cells were seeded in 225 cm^2 T- FLASK in DMEM with 10% FBS for 4 h to allow attachment. T. cruzi trypomastigotes, collected at days 5 to 8 after infection from LLC-MK2 parasite infected cultures, were allowed to swim out for 4 h at 37°C from a centrifuged pellet (1,600 x g / 10 min). Trypomastigotes were then collected and counted in a CASY Cell Counter using the 60 μm capillary. […] Cells were washed once with PBS before incubation of the infected H9c2 monolayer with trypsin (Life-Technologies) to detach cells from the flask. Cells were counted in a CASY Cell Counter, using the 150 μm capillary, and their density set at 5 x 10^4 cells/mL in supplemented DMEM. Infected H9c2 were dispensed into 384-well plates at 50 μL per well using a Multidrop Combi dispenser. Control wells used to determine a 100% parasitic growth (full 6th column of each plate) were left untreated, whereas not infected cells were added in the control wells used as 0% parasite growth (or 100% parasite growth inhibition; full 18th column of each plate). The four plates corresponding to each RoK assay were predispensed for the same mother plate. […] Cultures were then fixed and stained with 50 μL per well of a PBS solution containing 4% formaldehyde and 2 μM DRAQ5 DNA dye (BioStatus, UK). Then plates were read in a PerkinElmer Opera Phenix using a 20x objective, 3 fields per well. DRAQ5 signal was detected using 640 nm excitation laser and a 690/50 nm emission detection filter. Automated image analysis was performed with a script developed on Acapella High Content Imaging and Analysis Software (PerkinElmer). Two outputs were provided for each sample well: (1) number of host cells nuclei to determine drug-related cytotoxicity (aka H9c2) and (2) number of amastigotes per cell as infection level measurement (aka AM/CELL). Each output is plotted as a time course for each compound at every concentration. This assay was adapted from Alonso-Padilla et al. and Peña et al..
(§1) • ME (Maximum Effect) is the maximum percentage of parasite burden reduction reached by any compound concentration. Compounds that decrease the initial parasite load will show a positive value of ME, whereas compounds that allow the progression of infection will render a negative ME value. […] It is calculated for the MCC50 (t50%_MCC50) and for the maximum concentration (t50%_Cmax). […] The value of this parameter is not either interpolated or extrapolated, and it refers to the first experimental time-course point at which a 50% of effect is reached or exceeded. • tlag defines the time elapsed for one particular concentration to reduce parasite burden between two consecutive points at any moment of the time course. It is calculated for the MCC50 (tlag_MCC50) and for the maximum concentration (tlag_Cmax). The value of this parameter is not either interpolated or extrapolated, and it refers to the first experimental time-course point of a positive slope in the normalised plot (i.e. %Cidal_Response). • Cmin_Tox (Minimal CytoToxic Concentration) is the lowest compound concentration that is reducing the number of host mammalian cells below 50% of initial cell density. Cytotoxic compounds may mislead a bona fide antiparasitic action. Therefore, this descriptor is used to flag this kind of compounds and warn about the genuine meaning of the rest of descriptors.

[3] = test system: T. cruzi Tulahuen trypomastigotes; assay: T. cruzi trypomastigote assay (Cell Titer-Glo viability, ATP luminescence); type: cell-based, Trypanosoma cruzi; conditions: for Trypomastigotes pIC50 48 hours: 48 hours incubation; for Trypomastigotes pIC50 48 hours / Trypomastigotes pIC50 72 hours: pIC50 = -log10 IC50 in molar units; for Trypomastigotes pIC50 72 hours: 72 hours incubation; for 48 pIC50 / 72 pIC50: trypomastigote assay; for 48 pIC50: 48 h; for 72 pIC50: 72 h
In short: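 Compounds were tested in dose response or once at a final 5 μM against 5 × 10^4 trypomastigotes per well (DMEM, 2% FBS), collected on days 5–8 from LLC-MK2 infected cultures. ATP luminescence via CellTiter-Glo reports live parasites; DMSO defines 0% and cell-free wells 100% effect.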

TcCYP51 = conditions: formerly reported; cited from earlier work
[4] = test system: T. cruzi intracellular amastigotes in H9c2 cells; assay: Rate-of-Kill (RoK) high-content imaging assay, amastigotes per cell (AM/CELL) and curve descriptors; type: cell-based, Trypanosoma cruzi; conditions: maximum percentage of parasite burden reduction reached by any concentration, 24 hours
Protocol: For this high-content intracellular imaging assay, H9c2 cells were seeded in 225 cm^2 T- FLASK in DMEM with 10% FBS for 4 h to allow attachment. T. cruzi trypomastigotes, collected at days 5 to 8 after infection from LLC-MK2 parasite infected cultures, were allowed to swim out for 4 h at 37°C from a centrifuged pellet (1,600 x g / 10 min). Trypomastigotes were then collected and counted in a CASY Cell Counter using the 60 μm capillary. Trypomastigotes, in supplemented DMEM, were added to H9c2 cultures in a multiplicity of infection (MOI) of 8 and incubated for 18 h. Cells were washed once with PBS before incubation of the infected H9c2 monolayer with trypsin (Life-Technologies) to detach cells from the flask. Cells were counted in a CASY Cell Counter, using the 150 μm capillary, and their density set at 5 x 10^4 cells/mL in supplemented DMEM. Infected H9c2 were dispensed into 384-well plates at 50 μL per well using a Multidrop Combi dispenser. Control wells used to determine a 100% parasitic growth (full 6th column of each plate) were left untreated, whereas not infected cells were added in the control wells used as 0% parasite growth (or 100% parasite growth inhibition; full 18th column of each plate). The four plates corresponding to each RoK assay were predispensed for the same mother plate. […] Cultures were then fixed and stained with 50 μL per well of a PBS solution containing 4% formaldehyde and 2 μM DRAQ5 DNA dye (BioStatus, UK). Then plates were read in a PerkinElmer Opera Phenix using a 20x objective, 3 fields per well. DRAQ5 signal was detected using 640 nm excitation laser and a 690/50 nm emission detection filter. Automated image analysis was performed with a script developed on Acapella High Content Imaging and Analysis Software (PerkinElmer). Two outputs were provided for each sample well: (1) number of host cells nuclei to determine drug-related cytotoxicity (aka H9c2) and (2) number of amastigotes per cell as infection level measurement (aka AM/CELL). Each output is plotted as a time course for each compound at every concentration. This assay was adapted from Alonso-Padilla et al. and Peña et al..
To identify and classify the different compounds, the number of amastigotes per cell (AM/CELL) raw data obtained in rate of kill assay are normalised using the average of C1 (infected cells) at time 4 hours as 0% effect and the average of C2 (non-infected cells) for each time as 100% effect, according to the following Eq 1: %CIDALRESPONSE=100*[Avg_C14h-RawData]/[Avg_C14h-Avg_C2] (1)
as §1, with “action.” for “action. Therefore, this descriptor is used to flag this kind of compounds and warn about the genuine meaning of the rest of descriptors.”

**Q.** With `O=C(Cn1ccnc1[N+](=O)[O-])NCc1ccccc1` [BNDZ 10] as the molecule, how does the AM/CELL ([1]; combo BNDZ 10 with unnamed compound at Concentration 16.6667, time 4) read?
**A.** 2.035 and 2.023

**Q.** And the AM/CELL ([1]; combo BNDZ 10 with unnamed compound at Concentration 16.6667, time 24)?
**A.** 1.123 and 1.3558

**Q.** And the AM/CELL ([1]; combo BNDZ 10 with unnamed compound at Concentration 16.6667, time 48)?
**A.** 0.3934 and 0.4677

**Q.** What about the AM/CELL ([1]; combo BNDZ 10 with unnamed compound at Concentration 16.6667, time 72) of the same molecule?
**A.** 0.5411 and 0.6092

**Q.** And the AM/CELL ([1]; combo BNDZ 10 with unnamed compound at Concentration 50, time 4)?
**A.** 1.931 and 1.78

**Q.** What about the AM/CELL ([1]; combo BNDZ 10 with unnamed compound at Concentration 50, time 24) of the same molecule?
**A.** 0.8406 and 1.092

**Q.** And the AM/CELL ([1]; combo BNDZ 10 with unnamed compound at Concentration 50, time 48)?
**A.** 0.412 and 0.3872

**Q.** And the AM/CELL ([1]; combo BNDZ 10 with unnamed compound at Concentration 50, time 72)?
**A.** 0.6445 and 0.5238

**Q.** Which results are given for `Cc1ccc(S(=O)(=O)Nc2ccc(CN3CCN(C(=O)c4cccc(C#N)c4)CC3)cc2)cc1.O=C(O)C(F)(F)F` [TCMDC-143497]?
**A.** Cmin_Tox [2]: >50 µM; Trypomastigotes pIC50 48 hours [3]: < 4.3; Trypomastigotes pIC50 72 hours [3]: 4.9; CYP51 pIC50 (TcCYP51): < 4

**Q.** With `N#Cc1ccc(S(=O)(=O)N2CCN(Cc3cccc(-c4ccncc4)c3)CC2)cc1` [TCMDC-143620] as the molecule, how does the “Trypomastigotes pIC50 48 hours” value [3] read?
**A.** 4.4

**Q.** And the “Trypomastigotes pIC50 72 hours” value [3]?
**A.** < 4.3

**Q.** What about the “CYP51 pIC50” value (TcCYP51) of the same molecule?
**A.** 7.1

**Q.** With `Cc1cc(C)c(C#N)c(SCC(=O)c2ccc3c(c2)OCO3)n1` [TCMDC-143625] as the molecule, how does the “Trypomastigotes pIC50 48 hours” value [3] read?
**A.** 5.7

**Q.** And the “Trypomastigotes pIC50 72 hours” value [3]?
**A.** 5.5

**Q.** And the “CYP51 pIC50” value (TcCYP51)?
**A.** < 4

**Q.** With `CS(=O)(=O)O.Cc1cc(Br)cc(C(=O)c2c(C(C)C)c(=O)[nH]c(=O)n2Cc2ccnc(N)c2)c1` [TCMDC-143626] as the molecule, how does the “Trypomastigotes pIC50 48 hours” value [3] read?
**A.** < 4.3

**Q.** What about the “Trypomastigotes pIC50 72 hours” value [3] of the same molecule?
**A.** < 4.3

**Q.** And the “48 pIC50” value ([3]; figure 1A)?
**A.** < 4.3

**Q.** What about the “72 pIC50” value ([3]; figure 1A) of the same molecule?
**A.** < 4.3

**Q.** What about the “72 pIC50” value ([3]; figure 1B) of the same molecule?
**A.** < 4.3

**Q.** What about the “CYP51 pIC50” value (TcCYP51) of the same molecule?
**A.** 7.8

**Q.** Which “ME 24h (maximum effect at 24 hours, intracellular amastigotes)” value [4] does the source give for `CNc1cc(Cn2c(C(=O)c3cc(C)cc(Cl)c3)c(C(C)C)c(=O)[nH]c2=O)ccn1` [TCMDC-143637] here?
**A.** 23.6593%

**Q.** And the “Trypomastigotes pIC50 48 hours” value [3]?
**A.** < 4.3

**Q.** What about the “Trypomastigotes pIC50 72 hours” value [3] of the same molecule?
**A.** < 4.3

**Q.** And the “72 pIC50 (trypomastigotes, raw data of Fig 1D)” value ([3]; 72 hours, plotted values, censored values given without sign)?
**A.** < 4.3

**Q.** What about the “48 pIC50” value ([3]; figure 1A) of the same molecule?
**A.** < 4.3

**Q.** What about the “72 pIC50” value ([3]; figure 1A) of the same molecule?
**A.** < 4.3

**Q.** What about the “72 pIC50” value ([3]; figure 1B) of the same molecule?
**A.** < 4.3

**Q.** What about the “CYP51 pIC50” value (TcCYP51) of the same molecule?
**A.** 7.5
